Results: ChEMBL document CHEMBL3507680, “University of Dundee, Gates Library screen for HepG2 cell viability”

Experiment: Human HepG2 cell viability assay in 384 well format
Format: toxicity, cell-based
Parameters: dose 125 nL, time 70.5 hour; cytotoxicity at 70.5 h: concentration not given beside the values
Conditions: HepG2 cells, read-out: Inhibition

SMILES | cytotoxicity at 70.5 h [%]
CC(C)(C)CNC[C@H]1Cn2c(-c3ccccc3)cnc2CO1 | -3.54
COCC(=O)N[C@H](C)c1onc(-c2ccccc2)c1C(=O)O | -4.32
COc1ccc(-c2noc([C@@H](C)NC(=O)CC(C)C)c2C(=O)O)cc1 | -8.52
Cn1cc(CNC[C@H]2Cn3ccnc3CO2)c2ccccc21 | -5.61
CC(C)SCC(=O)N1CCc2c(nc(N(C)C)nc2N(C)C)C1 | -9.5
COc1ccccc1OCc1cc(C(=O)N2CCN[C@H](C)C2)n[nH]1 | -5.99
Cc1nn2c(N3CCC(O)CC3)cc(-c3ccccc3)nc2c1C | -3.29
CCn1c(N)nc2cc(C(=O)NCc3ccccc3Cl)cnc21 | 0.502
CCOCCn1c(=O)[nH]c2cc(C(=O)N(C)Cc3nc(C)cs3)ccc21 | -12.4
CCc1cnc(N)nc1NCCN1CCCCC1 | 23
O=C(c1ccc(C2CCCO2)s1)N1CCN(c2ccccc2F)CC1 (stereo not drawn) | -4.35
CC(C)c1cc(N2CCC(N)CC2)n2nccc2n1 | -4
O=C(CO)N1C[C@H]2CC[C@@H]1CN(C1Cc3ccccc3C1)C2 | -8.88
Cc1ncc(C)c(N2CCCC(CO)(Cc3cccc(Cl)c3)C2)n1 (stereo not drawn) | 1.75
CNC(=O)c1ccc(OC2CCN(S(C)(=O)=O)CC2)c(Cl)c1 | 3.83
CCn1ncnc1C(C)NC(=O)C1CCN(C(C)C)CC1 (stereo not drawn) | -8.56
Cc1cc(C)c2nc(CN3CCOC(CCO)C3)cc(O)c2c1 (stereo not drawn) | -4.44
COc1ccc(C2CC(=O)Nc3c2nc2n3CCCC2)cc1O (stereo not drawn) | -15.2
O=C(c1cccc(=O)[nH]1)N(Cc1ccsc1)CC1CCCO1 (stereo not drawn) | 5.57
Cc1ccc(S(=O)(=O)NC2CC2)cc1C | -5.86
O=C(c1ccncc1)N1C[C@@H]2CC[C@H](C1)N(C(=O)N1CCOCC1)C2 | -7.89
CCCc1cc(CNC(=O)C2CCOc3ccccc3C2)on1 (stereo not drawn) | 2.98

SMILES | cytotoxicity at 70.5 h [%]
Cc1nnc(CCNC2CCN(c3ncnc4c(C)csc34)CC2)s1 | -2.85
CC(C)NC(=O)c1nnn(-c2cccc(C(F)(F)F)c2)c1N | -4.84
COC(=O)c1cc(OCC2CCC2)cc(C(=O)N[C@@H]2CNCC[C@H]2O)c1 | 19.4
COCCN(C)C[C@@H]1CN(C(=O)c2cccc(C(F)(F)F)c2)C[C@@H]1CO | -9.39
Cc1c[nH]c(CN(C)C(=O)C2CC(=O)N(Cc3ccncc3)C2)n1 (stereo not drawn) | 11.9
Cc1cc(C)n(-c2cc(N3CCN(C(=O)C(C)(C)C)CC3)nc(C)n2)n1 | 2.21
CN(c1ccc(C(=O)NCCCN2CCOCC2)c(Cl)c1)S(C)(=O)=O | -8.19
CCN(c1ccc(C(=O)N2CCCC(C)C2)cc1)S(=O)(=O)CC (stereo not drawn) | -4.35
CCC(C(=O)NCc1ccncc1)N(c1cccc(C)c1)S(C)(=O)=O (stereo not drawn) | -9.28
Cc1cccc(C(=O)Nc2ccc(OC3CCN(C)CC3)cc2)c1 | 19.2
COCCCC1CCCN(C(=O)CCc2cc(O)no2)C1 (stereo not drawn) | -1.74
CN1CCC(CCNC(=O)c2ccc(N(C)S(C)(=O)=O)cc2Cl)CC1 | -7.69
Cc1nc(C2CCCN(C(=O)CO)C2)cc(N2CCOCC2)n1 (stereo not drawn) | -4.97
N#Cc1ccccc1CN1C[C@@H]2CC[C@H](C1)N(CC1CC1)C2=O | -7.57
COc1ccc(OCc2cc(C(=O)N3CCN[C@H](C)C3)n[nH]2)c(Cl)c1 | -9.79
CN(C)S(=O)(=O)N1CCN(c2ccnc(N3CCCC3)n2)CC1 | -12.4
Cc1ccc([C@@H]2CN(S(=O)(=O)N(C)C)C[C@H]2N(C)C)cc1 | -5.83
NC(=O)C1CCN(C(=O)CCn2ccc3cc(Br)ccc32)CC1 | -1.61
CCCS(=O)(=O)N1CCN(c2cc(-n3cnc(C)c3C)nc(C)n2)CC1 | -4.37
CCOC(=O)N1CCN(C(=O)c2ccc3ccn(C)c3c2)CC1 | -8.79
C[C@@H](NC(=O)c1cccs1)c1onc(-c2cccnc2)c1C(=O)O | 2.92
